The values below come from PMC10302047, “Structure–Activity Relationship Studies of Indolglyoxyl-Polyamine Conjugates as Antimicrobials and Antibiotic Potentiators” (Pharmaceuticals, 2023).

Series [1] has as its system P. aeruginosa ATCC 27853. Kind of series: Antibiotic potentiation (MIC of antibiotics in the presence of synergizing compounds), P. aeruginosa. The series is classed as cell-based, Pseudomonas aeruginosa. The settings on record: concentration required to restore doxycycline activity at 2 µg/mL (4.5 µM) against P. aeruginosa ATCC 27853.
For a further series, the system named is E. coli ATCC 25922. Kind of series: Antimicrobial susceptibility (MIC), E. coli. The series is classed as cell-based. The settings on record: Escherichia coli, ATCC25922, mean (n = 3). As to the method: (§1) The susceptibility of bacterial strains S. aureus (ATCC 25923), E. coli (ATCC 25922) and P. aeruginosa (ATCC 27853) to antibiotics and compounds was determined according to previously reported protocols. Additional antimicrobial evaluation against MRSA (ATCC 43300) and C. albicans (ATCC 90028) was undertaken at the Community for Open Antimicrobial Drug Discovery at The University of Queensland (Australia) according to their standard protocols as reported previously.

Series [2] has as its system P. aeruginosa ATCC 27853. Kind of series: Antimicrobial susceptibility (MIC), P. aeruginosa. The series is classed as cell-based. Particulars: Pseudomonas aeruginosa, ATCC27853, mean (n = 3), read-out: MIC P. a. Here is the method:
as §1

Another series concerns MRSA ATCC 43300. Kind of series: Antimicrobial susceptibility (MIC), MRSA. The series is classed as cell-based. Particulars: Staphylococcus aureus; MRSA ATCC 43300; mean (n = 2); read-out: MIC MRSA. As to the method: as §1
Another series relates to S. aureus ATCC 25923. Kind of series: Antimicrobial susceptibility (MIC), S. aureus. The class given is cell-based, Staphylococcus aureus. The settings on record: Staphylococcus aureus, ATCC25923; S. aureus ATCC 25923; mean (n = 3). As to the method:
as §1

In a further series the test system is C. albicans ATCC 90028. Kind of series: Antifungal susceptibility (MIC), C. albicans. The series is classed as cell-based. Particulars: Candida albicans, ATCC90028, mean (n = 2). As to the method: as §1
Series [3] is described as follows: Cytotoxicity assay HEK293. The settings on record: human, HEK293 cells, mean (n = 2), read-out: Cyto. IC50 (concentration of compound at 50% cytotoxicity). The class given is cell-based, human. Here is the method: Cytotoxicity assays were conducted according to previously reported protocols.
Another series relates to human red blood cells. Kind of series: Hemolytic assay. The class given is cell-based. The settings on record: mean (n = 2). As to the method:
Hemolysis assays were conducted according to previously reported protocols.

The term MIC denotes the least concentration at which growth counts as inhibited. For `O=C(NCCCNCCCCCCCCCCNCCCNC(=O)C(=O)c1c[nH]c2c(F)cccc12)C(=O)c1c[nH]c2c(F)cccc12.O=C(O)C(F)(F)F.O=C(O)C(F)(F)F` [Compound 21d, N^1,N^10-Bis(3-(2-(7-fluoro-1H-indol-3-yl)-2-oxoacetamido)propyl)decane-1,10-diaminium 2,2,2-trifluoroacetate], the “Conc (µM) for Potentiation of doxycycline” value (“Conc (µM) for Potentiation” for short) with P. aeruginosa ATCC 27853 [1] stood at 100 µM. Also, the MIC against E. coli ATCC 25922 was 6.25 µM; in the series with P. aeruginosa ATCC 27853 [2] it was greater than 200 µM; in the series on MRSA ATCC 43300 it was 4.48 µM; against S. aureus ATCC 25923 it was 3.12 µM; against C. albicans ATCC 90028, 36 µM. The IC50 in series [3] was 4.7 µM. The “Hem. HC10 (concentration of compound at 10% hemolytic activity)” value with human red blood cells was greater than 36 µM.
As to `O=C(NCCCNCCCCCCCCCCCCNCCCNC(=O)C(=O)c1c[nH]c2c(F)cccc12)C(=O)c1c[nH]c2c(F)cccc12.O=C(O)C(F)(F)F.O=C(O)C(F)(F)F` [Compound 21e, N^1,N^12-Bis(3-(2-(7-fluoro-1H-indol-3-yl)-2-oxoacetamido)propyl)dodecane-1,12-diaminium 2,2,2-trifluoroacetate], the “Conc (µM) for Potentiation” value in the series on P. aeruginosa ATCC 27853 [1] is greater than 200 µM. The MIC is greater than 220 µM against E. coli ATCC 25922; greater than 220 µM with P. aeruginosa ATCC 27853 [2]; 4.34 µM in the series with MRSA ATCC 43300; 27.2 µM with S. aureus ATCC 25923; 35 µM in the series on C. albicans ATCC 90028. In series [3], the IC50 is 6.4 µM. Moreover, the “Hem. HC10 (concentration of compound at 10% hemolytic activity)” value in the series on human red blood cells is on record as greater than 35 µM.
Regarding `COc1cccc2c(C(=O)C(=O)NCCCNCCCCCCNCCCNC(=O)C(=O)c3c[nH]c4c(OC)cccc34)c[nH]c12.O=C(O)C(F)(F)F.O=C(O)C(F)(F)F` [Compound 22a, N^1,N^6-Bis(3-(2-(7-methoxy-1H-indol-3-yl)-2-oxoacetamido)propyl)hexane-1,6-diaminium 2,2,2-trifluoroacetate], the “Conc (µM) for Potentiation” value in the series on P. aeruginosa ATCC 27853 [1] stood at 100 µM. Further, the MIC is 400 µM against E. coli ATCC 25922; 800 µM in the series on P. aeruginosa ATCC 27853 [2]; greater than 37 µM in the series with MRSA ATCC 43300; 50 µM with S. aureus ATCC 25923; greater than 37 µM in the series with C. albicans ATCC 90028. Besides, the IC50 in series [3] is greater than 37 µM. In addition, the “Hem. HC10 (concentration of compound at 10% hemolytic activity)” value in the series with human red blood cells is greater than 37 µM.
Regarding `COc1cccc2c(C(=O)C(=O)NCCCNCCCCCCCNCCCNC(=O)C(=O)c3c[nH]c4c(OC)cccc34)c[nH]c12.O=C(O)C(F)(F)F.O=C(O)C(F)(F)F` [Compound 22b, N^1,N^7-Bis(3-(2-(7-methoxy-1H-indol-3-yl)-2-oxoacetamido)propyl)heptane-1,7-diaminium 2,2,2-trifluoroacetate], in the series with P. aeruginosa ATCC 27853 [1], the “Conc (µM) for Potentiation” value is on record as 100 µM. Moreover, the MIC in the series on E. coli ATCC 25922 is 200 µM; with P. aeruginosa ATCC 27853 [2] it was 800 µM; in the series with MRSA ATCC 43300, greater than 37 µM; with S. aureus ATCC 25923, 25 µM; in the series with C. albicans ATCC 90028, greater than 37 µM. Further, in series [3], the IC50 came to 8.9 µM. Moreover, in the series on human red blood cells, the “Hem. HC10 (concentration of compound at 10% hemolytic activity)” value is listed as greater than 37 µM.
For the compound `COc1cccc2c(C(=O)C(=O)NCCCNCCCCCCCCCCNCCCNC(=O)C(=O)c3c[nH]c4c(OC)cccc34)c[nH]c12.O=C(O)C(F)(F)F.O=C(O)C(F)(F)F` [Compound 22d, N^1,N^10-Bis(3-(2-(7-methoxy-1H-indol-3-yl)-2-oxoacetamido)propyl)decane-1,10-diaminium 2,2,2-trifluoroacetate], the “Conc (µM) for Potentiation” value in the series with P. aeruginosa ATCC 27853 [1] came out at 400 µM. Further, the MIC against E. coli ATCC 25922 is 50 µM; with P. aeruginosa ATCC 27853 [2], 800 µM; with MRSA ATCC 43300, no more than 0.27 µM; in the series on S. aureus ATCC 25923, 25 µM; in the series with C. albicans ATCC 90028, 17 µM. Further, the IC50 in series [3] is greater than 35 µM. Further, in the series with human red blood cells, the “Hem. HC10 (concentration of compound at 10% hemolytic activity)” value worked out at 8.4 µM.
